Experimental data published in paper PMC10033419, “Blocking NS3–NS4B interaction inhibits dengue virus in non-human primates” (Nature, 2023).
“And” between values parts separate entries of the source, which are not always exact repeats. Equal entries are not always repeated. Where two headings read alike, the source gives them in different places.

Assays:
[1] = system: DENV-2 American Trinidad; experiment: DENV genotype panel RT-qPCR, Vero E6; type: cell-based; conditions: Dengue virus, DENV2, Vero C1008
Protocol: (§1) A total of 20 DENV strains, representing the available genotypes within the four DENV serotypes, were used in the in vitro genotype panel, from which 19 viruses were described previously in ref. [3] and one additional virus, DENV-1/45AZ5 (ref. [54]), was added.
(§2) A potential toxic effect on host cells was tested in parallel, while omitting virus infection, using the MTS/PMS method (Promega) for Vero cells, or by high-content imaging for C6/36 cells, as described previously. […] RT–qPCR data were analysed using the QuantStudio 12K Flex software (v.1.2.3) or SDS v.1.2 Applied Biosystems software. Inhibition values for antiviral molecules were plotted using KaleidaGraph plotting software (v.4.03, Synergy Software).

[2] = system: DENV-4 Sylvatic Malaysia; experiment: DENV genotype panel RT-qPCR, Vero E6; type: cell-based; conditions: Dengue virus, DENV4, Vero C1008
Protocol: as §1, §2

[3] = system: DENV-4 G2b Brazil; experiment: DENV genotype panel RT-qPCR, Vero E6; type: cell-based; conditions: Dengue virus, DENV4, Vero C1008
Protocol: as §1, §2

[4] = system: DENV-3 G2 Thailand; experiment: DENV genotype panel RT-qPCR, Vero E6; type: cell-based; conditions: Dengue virus, DENV3, Vero C1008
Protocol: as §1, §2

[5] = system: DENV-4 G3 Thailand; experiment: DENV genotype panel RT-qPCR, Vero E6; type: cell-based; conditions: Dengue virus, DENV4, Vero C1008
Protocol: as §1, §2

[6] = system: DENV-2 Sylvatic Malaysia; experiment: DENV genotype panel RT-qPCR, Vero E6; type: cell-based; conditions: Dengue virus, DENV2, Vero C1008
Protocol: as §1, §2

[7] = system: DENV-1 G4 Indonesia; experiment: DENV genotype panel RT-qPCR, Vero E6; type: cell-based; conditions: Dengue virus, DENV1, Vero C1008
Protocol: as §1, §2

[8] = system: DENV-4 G2a Malaysia; experiment: DENV genotype panel RT-qPCR, Vero E6; type: cell-based; conditions: Dengue virus, DENV4, Vero C1008
Protocol: as §1, §2

[9] = system: DENV-3 G1 Malaysia; experiment: DENV genotype panel RT-qPCR, Vero E6; type: cell-based; conditions: Dengue virus, DENV3, Vero C1008
Protocol: as §1, §2

[10] = system: DENV-1 G1 Djibouti; experiment: DENV genotype panel RT-qPCR, Vero E6; type: cell-based; conditions: Dengue virus, DENV1, Vero C1008; mean ± SD
Protocol: as §1, §2

[11] = system: DENV-1 G5 France - Toulon; experiment: DENV genotype panel RT-qPCR, Vero E6; type: cell-based; conditions: Dengue virus, DENV1, Vero C1008
Protocol: as §1, §2

[12] = system: DENV-3 G3 Bolivia; experiment: DENV genotype panel RT-qPCR, Vero E6; type: cell-based; conditions: Dengue virus, DENV3, Vero C1008
Protocol: as §1, §2

[13] = system: WNV R94224; experiment: microbe, parasite or virus in culture; type: cell-based; conditions: West Nile virus
[14] = Pharmacokinetics in mice, i.v. and oral; type: in vivo, CD-1 mice; conditions: for bioavailability: po
Protocol: The housing conditions and experimental procedures were approved by the ethics committee on animal experiments of Janssen Pharmaceutica NV (license number LA1100119). Janssen Pharmaceutica NV has full AAALAC accreditation. […] The blood samples were immediately centrifuged at 4 °C and the plasma was stored at −20 °C. Compound concentrations in the plasma samples were determined using the API 5500 LC–MS/MS system mass spectrometer (Applied Biosystems). […] (Certara).

[15] = in vivo; conditions: both, Indian-origin, rhesus monkey, po
[16] = system: rVSV Indiana; experiment: microbe, parasite or virus in culture; type: cell-based, recombinant vesicular stomatitis virus; conditions: Vesicular stomatitis virus, A549
[17] = system: ZIKV H/PF/2013; experiment: microbe, parasite or virus in culture; type: cell-based; conditions: Zika virus, Vero C1008
[18] = system: DENV-2/16681; experiment: NHP DENV-2 study, anti-DENV IgM ELISA; design: species or system rhesus macaques (M. mulatta); conditions: rhesus monkey, in vivo
[19] = system: DENV-2/16681/eGFP; experiment: microbe, parasite or virus in culture; type: cell-based; conditions: Dengue virus
[20] = system: DENV-2/16681; experiment: NHP DENV-2 study, anti-DENV IgG ELISA; design: species or system rhesus macaques (M. mulatta); conditions: rhesus monkey, in vivo
[21] = system: DENV-3 G5 Brazil; type: cell-based; conditions: T108A in NS4B
[22] = design: method as in earlier work; conditions: healthy volunteers ref 4; cited from earlier work
[23] = male, CD-1, plasma, mouse oral 1 mg/kg
[24] = male, CD-1, plasma, mouse oral 10 mg/kg
[25] = male, CD-1, plasma, mouse oral 30 mg/kg
[26] = mouse i.v. 2.5 mg/kg, 2.5 mg/kg

`COc1cc(N[C@H](C(=O)c2c[nH]c3ccc(OC(F)(F)F)cc23)c2ccc(Cl)cc2OC)cc(S(C)(=O)=O)c1` [JNJ-1802] gave an EC50 [1] of 0.063 ± 0.081 nM, an EC90 [1] of 0.162 ± 0.083 nM and an EC50 [2] of 0.66 ± 0.42 nM. For the same compound, the EC90 [2] was 1.6 ± 1.1 nM, the EC50 [3] was 0.521 ± 0.08 nM and the EC90 [3] was 1.54 ± 0.15 nM. The EC50 [4] was 1.68 ± 0.24 nM, the EC90 [4] was 5.8 ± 3 nM and the EC50 [5] was 45 nM. It also gave an EC90 [5] of 46 ± 12 nM, an EC50 [6] of 0.0634 ± 0.0022 nM and an EC90 [6] of 0.265 ± 0.029 nM. It also gave an EC90 [7] of 0.8 ± 0.31 nM, an EC50 ([7]; two of four values below threshold) of under 0.19 nM and an EC50 [8] of 0.82 ± 0.71 nM. The EC90 [8] was 2.1 ± 1.7 nM, the EC50 [9] was 1.28 ± 0.46 nM and the EC90 [9] was 3.6 ± 1.9 nM. For the same compound, the EC50 [10] was 0.207 ± 0.056 nM, the EC90 [10] was 0.83 ± 0.37 nM and the EC90 [11] was 1.02 ± 0.68 nM. The EC50 ([11]; one of three values below threshold) was under 0.23 nM, the EC50 [12] was 0.9 ± 1.1 nM and the EC90 [12] was 6.71 ± 0.66 nM. It also gave an EC50 ([13]; Vero C1008) of 250 nM, an EC50 ([13]; Vero C1008, read-out: mean EC50, range) of 250 to 1100 nM and a clearance ([14]; male, CD-1, in vivo, iv, mouse i.v. 2.5 mg/kg, read-out: CLp) of 4.97 ± 1.26 mL/min/kg. For the same compound, the Cmax ([14]; male, CD-1, in vivo, mouse oral 3 mg/kg) was 501 ± 149 ng/mL, the half-life ([14]; male, CD-1, mouse, plasma, iv, 2.5 mg/kg, mouse i.v. 2.5 mg/kg) was 6.2 h and the bioavailability ([14]; male, CD-1, mouse, plasma, 1 mg/kg, mouse oral 1 mg/kg) was 46 ± 6%. For the same compound, the bioavailability ([14]; male, CD-1, mouse, plasma, 3 mg/kg, mouse oral 3 mg/kg) was 59 ± 28%, the bioavailability ([14]; male, CD-1, mouse, plasma, 10 mg/kg, mouse oral 10 mg/kg) was over 100% and the bioavailability ([14]; male, CD-1, mouse, plasma, 30 mg/kg, mouse oral 30 mg/kg) was 121 ± 21%. The AUC(0-t) ([14]; male, CD-1, mouse, plasma, mice, single oral dose 1 to 30 mg per kg, read-out: AUC0–24h, range) was 1520 to 120000 ng·h/mL, the AUC(0-inf) ([14]; male, CD-1, plasma, iv, mouse i.v. 2.5 mg/kg) was 8820 ng·h/mL and the AUC(0-t) ([14]; male, CD-1, plasma, iv, mouse i.v. 2.5 mg/kg, read-out: AUC(0-24h)) was 8240 ng·h/mL. It also gave a Cmax [14, 23] of 119 ± 26 ng/mL, a Tmax [14, 23] of 5 ± 1.7 h and an AUC(0-t) ([14]; male, CD-1, plasma, mouse oral 1 mg/kg, read-out: AUC(0-24h)) of 1520 ng·h/mL. It also gave a Tmax ([14]; male, CD-1, plasma, mouse oral 3 mg/kg) of 5 ± 1.7 h, an AUC(0-t) ([14]; male, CD-1, plasma, mouse oral 3 mg/kg, read-out: AUC(0-24h)) of 5780 ng·h/mL and a Cmax [14, 24] of 2730 ng/mL. It also gave a Tmax [14, 24] of 7 h, an AUC(0-t) ([14]; male, CD-1, plasma, mouse oral 10 mg/kg, read-out: AUC(0-24h)) of 35600 ng·h/mL and a Cmax [14, 25] of 7760 ng/mL. For the same compound, the Tmax [14, 25] was 6 ± 1.7 h, the AUC(0-t) ([14]; male, CD-1, plasma, mouse oral 30 mg/kg, read-out: AUC(0-24h)) was 120000 ng·h/mL and the Vdssp [14, 26] was 2.51 ± 0.55 L/kg and 2.51 ± 0.553 L/kg. The t1/2 [14, 26] was 6.17 ± 0.23 h, the F ([14]; mouse oral 1 mg/kg, 1 mg/kg) was 46.1+/-6.47% and the F ([14]; mouse oral 3 mg/kg, 3 mg/kg) was 58.5+/-27.9%. For the same compound, the bioavailability [15] was 18 to 27%, the AUC(0-t) ([15]; 0.18 mg/kg) was 491 ± 147 ng·h/mL and the AUC(0-t) ([15]; 0.18 mg/kg, AUC(0-24h)) was 227 ± 146 ng·h/mL. The Cmax ([15]; 0.18 mg/kg, Cmax) was 15.1 ± 8.5 ng/mL, the Tmax ([15]; 0.18 mg/kg, tmax) was 8 to 24 h and the EC50 [16] was 6900 nM. The EC50 [17] was 1100 nM, the “IgG and IgM seroconversion” value [18] was “occurred in all of the animals” and the IgM seroconversion [18] was “occurred at later timepoints”. The “animals with detectable anti-DENV IgM” value [18] was “one out of three”, the EC90 ([19]; DENV2, Huh-7, Huh-7, read-out: EC90) was 0.53 ± 0.31 nM and the EC90 ([19]; DENV2, Huh-7, read-out: EC90 Mean) was 0.533 nM. The IgG seroconversion [20] was “observed at later timepoints”, the “animals with detectable anti-DENV IgG” value [20] was “none of the animals” and the EC50 [21] was 1.8 ± 1.4 nM. For the same compound, the EC90 [21] was 3.8 ± 1.1 nM and the “safety and tolerability in humans” value [22] was “safe and well tolerated”.
